Reference: ChEMBL document CHEMBL4689842, “EUbOPEN Chemogenomics Library wave 1” (2021)

How the values were obtained:
Fibroblast = test: Incucyte cell viability with human fibroblast; type: toxicity, cell-based; conditions: 10 µM, compound concentration 10 uM
HEK-293T = test: Incucyte cell viability with HEK293T; type: toxicity, cell-based; conditions: human, 10 µM, compound concentration 10 uM
[1] = 0 h, replicate number 1, timepoint 0 hours
[2] = 6 h, replicate number 2, timepoint 6 hours
[3] = 12 h, replicate number 1, timepoint 12 hours
[4] = 12 h, replicate number 2, timepoint 12 hours
[5] = 18 h, replicate number 1, timepoint 18 hours
[6] = 24 h, replicate number 1, timepoint 24 hours
[7] = 6 h, replicate number 1, timepoint 6 hours
[8] = 0 h, replicate number 2, timepoint 0 hours
[9] = 18 h, replicate number 2, timepoint 18 hours
[10] = 24 h, replicate number 2, timepoint 24 hours
Note: filed as whole numbers so only -1 and 0 and 1 occur.

SMILES | Growth Rate (Fibroblast; [1]) | Growth Rate (Fibroblast; [2]) | Growth Rate (Fibroblast; [3]) | Growth Rate (Fibroblast; [4]) | Growth Rate (Fibroblast; [5]) | Growth Rate (Fibroblast; [6]) | Growth Rate (HEK-293T; [1]) | Growth Rate (HEK-293T; [7]) | Growth Rate (HEK-293T; [3]) | Growth Rate (HEK-293T; [5]) | Growth Rate (HEK-293T; [6]) | Growth Rate (Fibroblast; [8]) | Growth Rate (Fibroblast; [7]) | Growth Rate (Fibroblast; [9]) | Growth Rate (HEK-293T; [10]) | Growth Rate (HEK-293T; [8]) | Growth Rate (HEK-293T; [9]) | Growth Rate (Fibroblast; [10]) | Growth Rate (HEK-293T; [2]) | Growth Rate (HEK-293T; [4])
Cc1csc2c(N[C@@H](C)CN3CCN(S(=O)(=O)c4ccc(Cl)c(Cl)c4)CC3)ncnc12 | 0 | 0 | 1 | 0 | 0 | 0 | 0 | 0 | 0 | 0 | 0 |  |  |  |  |  |  |  |  | 
CN(C)C(=O)/C(C#N)=C/c1ccc(-c2nc3cnc4[nH]ccc4c3n2C2CCCCC2)o1 |  |  | 0 |  | 0 | 0 | 0 |  |  |  |  | 0 | 1 | 1 | 1 |  |  |  |  | 
C=CC(=O)Nc1cccc(C(=O)Nc2ccc(Nc3cc(-c4[nH]c(SC)nc4C)ccn3)cc2)c1 | 0 | 1 | 0 | 1 | 1 | 1 | 0 | 0 | 0 | 0 | 0 |  |  |  |  | 1 | 1 |  |  | 
CN(C)c1ncnc(-c2ccc3nc(Nc4cc(CN5CCN(C(=O)CC(F)(F)F)CC5)ccn4)[nH]c3c2)c1Cl [BAY-440] | 0 |  | 1 |  | 1 | 1 |  | 0 | 0 | 0 | 0 |  | 1 | 0 |  | 0 |  | 0 |  | 
CN1CCN(CCOc2cc(OC3CCOCC3)c3c(Nc4c(Cl)ccc5c4OCO5)ncnc3c2)CC1 [SARACATINIB] | 0 |  |  |  | 1 | 1 |  | 0 | 0 | 0 | 0 |  |  |  |  |  |  |  |  | 
CNc1nc(NCc2ccc(NS(C)(=O)=O)cc2Cl)cc(-c2ccccn2)n1 |  |  | 0 |  | 0 | 0 | 1 | 0 | 0 | 0 | 0 |  | 0 |  |  | 0 |  |  |  | 
Cc1nc(Nc2n[nH]c3c2CN(C(=O)N[C@H](CN(C)C)c2ccccc2)C3(C)C)c2sccc2n1 [PF-03758309] |  |  | 0 |  | 0 | 0 |  | 0 | 0 | 0 | 0 | 0 | 0 |  |  |  |  |  |  | 
CN(C)CC#Cc1ccc(OCCCc2sc(N3CCc4cccc(C(=O)Nc5nc6ccccc6s5)c4C3)nc2C(=O)O)c(F)c1 [A-1155463] | 0 |  | 0 |  | 0 | 0 | 0 |  |  |  |  |  | 0 |  | 1 | 1 |  |  |  | 
COc1cccc([C@@H](C)NCCCc2ccccc2Cl)c1.Cl [TECALCET HYDROCHLORIDE] | 0 | 0 | 1 | 0 | 1 | 1 |  | 0 | 0 | 0 | 0 |  |  | 0 |  | 0 |  | 0 |  | 
Cc1c(-c2ccc(O)cc2)n(Cc2ccc(OCCN3CCCCCC3)cc2)c2ccc(O)cc12 [BAZEDOXIFENE] | 0 |  | 0 |  | 0 | 0 |  | 0 | 0 | 0 | 0 |  | 0 |  |  | 0 |  |  |  | 
CC(C)NCC(O)COc1ccc(CCOCC2CC2)cc1.Cl (configuration not stated) [BETAXOLOL HYDROCHLORIDE] | 0 |  | 0 |  | 0 | 0 |  | 0 | 0 | 0 | 0 |  | 0 |  |  | 0 |  |  | 1 | 
C=CC(=O)Nc1cc2c(Nc3ccc(F)c(Cl)c3)ncnc2cc1OCCCN1CCOCC1.Cl.Cl [CANERTINIB DIHYDROCHLORIDE] | 1 |  | 0 |  | 0 | 0 |  | 0 | 0 | 0 | 0 |  | 0 |  |  |  |  |  |  | 
O=C(NCCN1CCOCC1)c1ccc2c(c1)C(=O)c1ccc(Nc3ccc(F)c(NC(=O)c4ccccc4)c3)cc1CC2 [FS-694] | 0 |  | 0 |  | 0 | 0 |  | 0 | 0 | 0 | 0 |  | 1 |  |  | 0 |  |  |  | 
COc1cc(-n2cnc3cc(-c4ccc(Cl)cc4)sc3c2=O)ccc1OCCN1CCCC1 |  |  | 0 |  | 0 | 0 |  | 0 | 0 | 0 | 0 |  | 0 |  |  | 1 |  |  |  | 
Cl.N#Cc1ccc2[nH]cc(CCCCN3CCN(c4ccc5oc(C(N)=O)cc5c4)CC3)c2c1 [VILAZODONE HYDROCHLORIDE] | 0 | 0 | 1 | 0 | 0 | 0 | 0 | 0 | 0 | 0 | 0 |  |  |  |  |  |  |  |  | 
COc1ncc(-c2ccc3nccc(-c4ccnnc4)c3c2)cc1NS(=O)(=O)c1ccc(F)cc1F [OMIPALISIB] |  |  | 0 |  | 0 | 0 |  | 0 | 0 | 0 | 0 | 0 | 0 |  |  |  |  |  |  | 
Cn1cncc1[C@@](O)(COc1ccc(C#N)cc1-c1ccc(OC(F)(F)F)cc1)c1ccc(C#N)cc1 [A-108] | 1 |  | 0 |  | 0 | 0 | 1 |  | 1 | 0 | 0 |  | 0 |  |  |  |  |  | 0 | 0
Nc1c(C(=O)NCc2ccc(C(=O)NCCCC3CCCCC3)cc2)cnn1-c1ccccc1 [SR-318] | 0 | 0 | 1 | 0 | 0 | 0 | 0 |  |  | 1 | 0 | 1 | 1 |  |  |  | 0 |  | 0 | 0
CC(C)C(=O)Nc1n[nH]c2cc(-c3cccc(NS(=O)(=O)C4CC4)c3)ccc12 | 1 |  | 0 |  | 0 | 0 | 0 | 0 | 0 | 0 | 0 |  | 0 |  |  |  |  |  |  | 
Cn1cc(C2=C(c3cn(C4CCN(Cc5ccccn5)CC4)c4ccccc34)C(=O)NC2=O)c2ccccc21 [ENZASTAURIN] |  |  | 0 |  | 0 | 0 |  | 0 | 0 | 0 | 0 |  | 0 |  |  |  |  |  |  | 
C[C@@H](NCCCc1cccc(C(F)(F)F)c1)c1cccc2ccccc12.Cl [CINACALCET HYDROCHLORIDE] | 1 |  | 0 |  | 0 | 0 |  | 0 | 0 | 0 | 0 |  | 0 |  |  | 0 |  |  |  | 
O=C(NCCCC1CCCCC1)c1ccc(CNC(=O)c2cnn(-c3ccccc3)c2C(F)(F)F)cc1 [SR-321] | 1 | 0 | 1 | 0 | 1 | 1 | 0 | 0 | 0 | 0 | 0 |  | 1 |  |  | 1 |  |  |  | 
Cc1[nH]c(/C=C2\C(=O)Nc3ccc(S(=O)(=O)N(C)c4cccc(Cl)c4)cc32)c(C)c1C(=O)N1CCN(C)CC1 | 0 |  |  |  | 1 | 1 | 0 |  |  | 0 | 0 |  |  |  |  |  | 1 |  |  | 
COc1cc2nccc(Oc3ccc(NC(=O)Nc4cc(C)on4)c(Cl)c3)c2cc1OC.O | 0 | 1 | 0 |  | 0 | 0 |  | 0 | 0 | 0 | 0 |  | 0 |  |  | 0 |  |  |  | 
CCOCCn1cc(C(=O)Nc2ccc(-n3nc(-c4cccnc4)cc3C(F)(F)F)cn2)ccc1=O [BI 1935] |  |  | 0 | 1 | 0 | 0 | 1 | 0 | 0 | 0 | 0 | 0 | 1 |  |  |  |  | 1 |  | 
c1cn2cc(-c3ccc4cn[nH]c4c3)nc(Nc3ccc(N4CCOCC4)cc3)c2n1 [ENTOSPLETINIB] |  |  | 0 |  | 0 | 0 |  |  |  |  | 1 | 0 | 0 |  |  |  |  |  |  | 
Cc1cc(C)cc(-c2cnc3cc(Cl)c(-c4cccc(O)c4)cc3c2OCCCN)c1 | 0 |  | 0 |  | 0 | 0 |  | 0 | 0 | 0 | 0 |  | 0 |  |  | 1 |  |  |  | 
CCN(CC)CCCCNc1ncc2cc(-c3cc(OC)cc(OC)c3)c(NC(=O)NC(C)(C)C)nc2n1 [PD-173074] | 1 |  | 0 |  | 0 | 0 | 1 | 0 | 0 | 0 | 0 | 0 | 1 |  |  |  |  |  |  | 
CCn1c(=O)c(-c2ccc(Cl)cc2Cl)cc2cnc(Nc3ccc(N4CCNCC4)c(F)c3)nc21 | 0 |  | 0 |  | 0 | 0 |  | 0 | 0 | 0 | 0 |  | 0 |  |  |  |  |  |  | 
